Assay results from patent publication US8044206B2, “Nitrogen—containing heterocyclic derivatives having 2,6-disubstituted styryl” (Astellas Pharma Inc., priority 2003, dated 2011).
Structures can show the parent of a compound that is named as a salt.

Assays:
sodium channel = experiment: [14C] guanidine uptake induced by veratridine in rat cerebral cortex primary neurons (sodium channel inhibitory action); format: cell-based; settings: [14C] guanidine uptake induced by 100 μM veratridine, specific uptake = portion inhibited by 1 mM mexiletine, read-out: Na Channel Inhibition IC50
Method: The [^14C] guanidine uptake experiment was performed by the method of Bonisch et al. (British Journal of Pharmacology 108, 436-442, 1993) with some modifications. The [^14C] guanidine was used as a sodium tracer, and the inhibitory activity on uptake of [^14C] guanidine induced by veratridine as a sodium channel activator into rat cerebral cortex primary neurons was measured.
Pregnant rats (Wistar, female, 19 days of gestation) were anesthetized with ether. The animals were bled to death by giving incision through the carotid artery. The fetuses were taken out of the pregnant rats and after ethanol sterilization, the cerebral cortex was removed from the fetuses. The cerebral cortex was digested with papain and dispersed in culture medium, followed by plating on a poly-L-lysine-coated 96-well white plate at a density of 2.5×10^5 cells/well. Incubation was performed in a CO2 incubator (37° C., 5% CO2) for 2 days.
After each well was washed once with an assay buffer (135 mM choline Cl, 5 mM KCl, 1 mM MgSO4, 5.5 mM glucose, 1 mg/mL BSA, 10 mM Hepes-Tris, pH 7.4), a fresh assay buffer was added to the well, followed by incubation at 25° C. for 10 minutes. Then, a reaction solution (a test compound, [^14C] guanidine and 100 μM, veratridine) was replaced for the buffer, followed by incubation at 25° C. for 15 minutes. The reaction was terminated by washing 3 times with a cold wash buffer (135 mM NaCl, 5 mM KCl, 1 mM MgSO4, 10 mM Hepes-Tris, pH 7.4). To each well, 17 μl of 0.1N NaOH was added. After agitation, 100 μl of scintillator was added to the well and further agitation was continued. The radioactivity was quantified by a liquid scintillation counter. In each experiment, the sodium channel-specific uptake of the whole uptake was designated as portion that was inhibited by 1 mM mexiletine. The action of the test compound on sodium channel is expressed as 50% inhibition concentration (IC50) based on the specific uptake.

[1] = tested on: mice with streptozotocin (STZ)-induced diabetic neuropathy; experiment: Analgesic action in mice with streptozotocin (STZ)-induced diabetic neuropathy, tail pinch test; format: in vivo; settings: male ICR mice, Day 15 after STZ, oral 30 mg/kg, 45 minutes prior to measurement, latency after minus before administration
Method: Representative compounds of Compound (I) of the present invention were assessed for the analgesic action in mice with streptozotocin (STZ)-induced diabetic neuropathy to confirm the effect on neuropathic pain. The assessment was performed by the method of Kamei et al. (Pharmacology Biochemistry & Behavior 39, 541-544, 1991) with some modifications.
Male ICR mice of 4 weeks old were intraperitoneally injected with 200 mg/kg weight of STZ to prepare mice with diabetic neuropathic pain. The analgesic action was assessed by the tail pinch test. […] On Day 14 following the STZ injection, a pretest was carried out to determine the response latency before the administration of a test compound. Only the animals showing not longer than 3 seconds of the response latency in the pretest were used for the test compound assessment on the following day (Day 15 after STZ injection).
In the test compound assessment, the response latency after the administration of a test compound was measured. The test compound was orally administered at a dose of 30 mg/kg, 45 minutes prior to the response latency measurement
The analgesic action of a test compound is expressed as prolongation of latency (in seconds) calculated by the formula: (response latency after administration of a test compound)−(response latency before administration of a test compound).

| SMILES | IC50 (sodium channel) [µM] | Anti-STZ-induced pain after oral administration: Latency prolongation [1] [s] |
| --- | --- | --- |
| Cc1cccc(C)c1/C=C/c1ccncc1 [Example 25-2] | 29 | – |
| CCc1cccc(CC)c1/C=C/C1CCNCC1 [Example 40] | 8.4 | – |
| Cc1cc(C#N)cc(C)c1/C=C/C1CCNCC1 [Example 49, 3,5-dimethyl-4-[(E)-2-piperidin-4-ylvinyl]benzonitrile] | – | 2.2 |
| CCCCN(CCCC)C(=O)c1cc(C)c(/C=C/C2CCNCC2)c(C)c1 [Example 51] | 15 | – |
| COc1cc(C)c(/C=C/C2CCNCC2)c(C)c1 [Example 54] | 19 | – |
| Cc1cc(Br)cc(C)c1/C=C\C1CCNCC1 [Example 56] | 6.7 | – |
| Cc1cccc(C)c1/C=C/[C@H]1CCNC[C@@H]1C [Example 68, 4-[(E)-2-(2,6-dimethylphenyl)vinyl]-3-methylpiperidine hydrochloride] | 8.7 | – |
| Cc1cccc(C)c1/C=C/C1CCN(Cc2ccccc2)CC1 [Example 73, 1-benzyl-4-[(E)-2-(2,6-dimethylphenyl)vinyl]piperidine] | 1.9 | – |
| COCCN1CCC(/C=C/c2c(C)cccc2C)CC1 [Example 75] | 3.5 | – |
| Cc1cccc(C)c1/C=C/C1CCN(C(=O)c2nc(N)n[nH]2)CC1 [Example 87, 5-({4-[(E)-2-(2,6-dimethylphenyl)vinyl]piperidin-1-yl}carbonyl)-1H-1,2,4-triazol-3-amine] | – | 1.6 |
| O=C(CN1CCOCC1)N1CCC(/C=C/c2c(Cl)cccc2Cl)CC1 [Example 98] | 12 | – |
| Cc1cc(Oc2ccccc2)cc(C)c1/C=C/C1CCN(C(=O)CN2CCOCC2)CC1 [Example 99, 4-(2-{4-[(E)-2-(2,6-dimethyl-4-phenoxyphenyl)vinyl]piperidin-1-yl}-2-oxoethyl) morpholine] | – | 1.7 |
| Cc1cccc(C)c1/C=C/C1CCCN(C(=O)CN2CCOCC2)C1 (centres unmarked) [Example 101] | – | 2.0 |
| Cc1cccc(C)c1/C=C/C1CCCCN1C(=O)CN1CCOCC1 (centres unmarked) [Example 102, 4-(2-{2-[(E)-2-(2,6-dimethylphenyl)vinyl]piperidin-1-yl}-2-oxoethyl)morpholine] | – | 2.1 |
| Cc1cccc(C)c1/C=C/CC1CCN(C(=O)CN2CCOCC2)CC1 [Example 103] | 5 | – |
| Cc1cccc(C)c1/C=C/C1CCN(C(=O)CN2CCN(C(=O)c3cccnc3)CC2)CC1 [Example 105, 1-(2-{4-[(E)-2-(2,6-dimethylphenyl)vinyl]piperidin-1-yl}-2-oxoethyl)-4-(pyridin-3-ylcarbonyl)piperazine] | – | 1.8 |
| Cc1cccc(C)c1/C=C/C1CCN(C(=O)C(C)(C)N)CC1 [Example 108, (2-{4-[(E)-2-(2,6-dimethylphenyl)vinyl]piperidin-1-yl}-1,1-dimethyl-2-oxoethyl)amine monohydrochloride] | – | 1.8 |
| Cc1cccc(C)c1/C=C/C1CCN(C(=O)C2(N)CCC2)CC1 [Example 110, [1-({4-[(E)-2-(2,6-dimethylphenyl)vinyl]piperidin-1-yl}carbonyl)cyclobutyl]amine] | – | 2.1 |
| Cc1cccc(C)c1/C=C/C1CCN(C(=O)[C@@H]2CCCN2)CC1 [Example 114, 4-[(E)-2-(2,6-dimethylphenyl)vinyl]-1-[(2S)-pyrolidin-2-ylcarbonyl]piperidine] | – | 2.4 |
| Cc1cccc(C)c1C=CC1CCN(C(=O)C2COCCN2)CC1 (centres unmarked) [Example 122] | 9.4 | – |
| Cc1cccc(C)c1/C=C/C1CCN(C(=O)Cn2ccnc2)CC1.Cl [Example 125, 4-[(E)-2-(2,6-dimethylphenyl)vinyl]-1-(1H-imidazol-1-ylacetyl)piperidine monohydrochloride] | – | 1.6 |

| SMILES | IC50 (sodium channel) [µM] | Anti-STZ-induced pain after oral administration: Latency prolongation [1] [s] |
| --- | --- | --- |
| Cc1cccc(C)c1/C=C/C1CCN(C(=O)CNC2COC2)CC1 [Example 126, N-(2-{4-[(E)-2-(2,6-dimethylphenyl)vinyl]piperidin-1-yl}-2-oxoethyl)oxetane-3-amine] | – | 1.5 |
| Cc1cccc(C)c1/C=C/C1CCN(C(=O)CNC2CCOCC2)CC1 [Example 129, (2-{4-[(E)-2-(2,6-dimethylphenyl)vinyl]piperidin-1-yl}-2-oxoethyl)tetrahydro-2H-pyran-4-ylamine] | 4.2 | – |
| Cc1cccc(C)c1C=CC1CCN(C(=O)CNCC2CCCO2)CC1 (centres unmarked) [Example 130] | 3.4 | – |
| CC(=O)NCCNCC(=O)N1CCC(/C=C/c2c(C)cccc2C)CC1 [Example 134, N-{2-[(2-[4-[(E)-2-(2,6-dimethylphenyl)vinyl]piperidin-1-yl]-2-oxoethyl)amino]ethyl}acetamide] | – | 1.7 |
| Cc1cccc(C)c1/C=C/C1CCN(C(=O)CNCCO)CC1 [Example 135, 2-[(2-{4-[(E)-2-(2,6-dimethylphenyl)vinyl]piperidin-1-yl}-2-oxoethyl)amino]ethanol] | – | 2.4 |
| Cc1cccc(C)c1/C=C/C1CCN(C(=O)CN2CC=CC2)CC1 [Example 145] | 6 | – |
| Cc1cccc(C)c1/C=C/C1CCN(C(=O)CN2CCCCC2C(N)=O)CC1 (centres unmarked) [Example 150, 1-(2-{4-[(E)-2-(2,6-dimethylphenyl)vinyl]piperidin-1-yl}-2-oxoethyl)piperidine-2-carboxamide] | – | 1.7 |
| Cc1cccc(C)c1C=CC1CCN(C(=O)CN2CC(C)CC(C)C2)CC1 (centres unmarked) [Example 153, 1-(2-{4-(E)-2-(2,6-dimethylphenyl)vinyl]piperidin-1-yl}-2-oxoethyl)-3,5-dimethyl piperidine] | 2.4 | – |
| Cc1cccc(C)c1/C=C/C1CCN(C(=O)CN2CCC(Cc3ccccc3)CC2)CC1 [Example 165] | 2.3 | – |
| Cc1cccc(C)c1/C=C/C1CCN(C(=O)CN2CCC(N3CCCC3)CC2)CC1 [Example 170, 4-[(E)-2-(2,6-dimethylphenyl)vinyl]-1-[(4-pyrolidin-1-ylpiperidin-1-yl)acetyl]piperidine] | – | 1.7 |
| Cc1cccc(C)c1/C=C/C1CCN(C(=O)CN2CCN(C3CCCCC3)CC2)CC1 [Example 176] | 2.5 | – |
| Cc1cccc(C)c1/C=C/C1CCN(C(=O)CN2CCOCC2)CC1 [Example 179, 4-(2-{4-[(E)-2-(2,6-dimethylphenyl)vinyl]piperidin-1-yl}-2-oxoethyl)morpholine] | – | 1.8 |
| Cc1cccc(C)c1/C=C/C1CCN(C(=O)CN2CCOC(CO)C2)CC1 (centres unmarked) [Example 180, [4-(2-{4-[(E)-2-(2,6-dimethylphenyl)vinyl]piperidin-1-yl}-2-oxoethyl)morpholine-2-yl]methanol] | – | 2.3 |
| Cc1cccc(C)c1/C=C/C1CCN(C(=O)CN2CCSCC2)CC1 [Example 185] | 6.7 | – |
| Cc1cccc(C)c1/C=C/C1CCN(C(=O)CN2CCCOCC2)CC1 [Example 189, 4-(2-{4-[(E)-2-(2,6-dimethylphenyl)vinyl]piperidin-1-yl}-2-oxoethyl)-1,4-oxazepane] | – | 2.4 |
| Cc1cccc(C)c1C=CC1CCN(C(=O)CN2CCCC3CCCCC32)CC1 (centres unmarked) [Example 192] | 1.1 | – |
| Cc1cccc(C)c1/C=C/C1CCN(C(=O)CNCCN)CC1 [Example 198] | 8.5 | – |
| Cc1cccc(C)c1/C=C/C1CCN(C(=O)CN2CCC(N)CC2)CC1 [Example 203, 1-(2-{4-[(E)-2-(2,6-dimethylphenyl)vinyl]piperidin-1-yl}-2-oxoethyl)piperidine-4-amine] | – | 1.7 |
| Cc1cccc(C)c1C=CC1CCN(C(=O)CN(C)CC2CCCO2)CC1 (centres unmarked) [Example 211] | 3 | – |
| Cc1cccc(C)c1/C=C/C1CCN(C(=O)CN(C)CCN2CCOCC2)CC1 [Example 213] | 3.7 | – |
